Measured values: patent US20220152174A1, “Cancer Antigen Peptide” (National University Corporation Asahikawa Medical University, priority 2018, published 2022)

Columns and labels:
[1] = test system: mouse DAZL1 gene expression in WEHI-3; assay: DAZL1 gene expression by real-time PCR in 5-AZA-treated WEHI-3; assay type: cell-based
Method: Cells of cancer cell lines (lung cancer cell line EBC1, lung cancer cell line Lu65, colon cancer cell line HT-29, and oral squamous cell carcinoma cell line SAS) were cultured in the complete medium (RPMI 1640 medium (nacalai tesque 30264-56) with 100 U/mL penicillin (Meiji Seika) and […] streptomycin (Meiji Seika), added with 10% fetal bovine serum (biosera FB-1365/500) which had been […] at 56° C. for 30 minutes) containing 5-AZA (10 μM) at the density of 2×10^5 cells/well in 6-well plates (Falcon 353046) in an incubator (SANYO) set at 37° C., 5% CO2, and 95% humidity for 3 days. The same incubator was used for all cell cultures in the following tests. The cells were washed with 2 mL of a phosphate-buffered saline (PBS, KANTO CHEMICAL CO., INC. 73111). The RNAs were extracted with RNeasy Mini Kit (Qiagen 74106), and the cDNAs were synthesized by using PrimeScript 1st strand cDNA Synthesis Kit (Takara Bio 6110A), and the gene expression levels of GAPDH (Applied Biosystems Hs02786624_g1) and SYCP3 (Applied Biosystems Hs00538146_m1) were analyzed by real-time PCR using LightCycler480 (Roche). […]
Similarly, cells of mouse leukemia cell line WEHI-3 (Balb/c) was cultured in the presence of 5-AZA, and the gene expression levels of mouse GAPDH (Applied Biosystems Mm99999915_g1) and mouse DAZL1 (Applied Biosystems Mm01273546_m1) were analyzed.

[2] = test system: DR53-positive cancer cell lines (WiDr, Lu65, and Calu1); conditions: cancer cells pretreated with 10 μM 5-AZA and 500 U/mL IFN-γ for 3 days; co-culture 24 hours
Method: In order to study the reactivity of SYCP3-A peptide-specific CD4-positive T-cells toward cells of cancer cell lines, DR53-positive cancer cell lines (WiDr, Lu65, and Calu1) were used. The cancer cells were cultured in 6-well culture plates for 3 days using 2 mL of the complete medium containing 10 μM 5-AZA and 500 U/mL IFN-γ (Immunomax-γ for injection 50, Shionogi), which can induce expression of HLA class II molecules on the surfaces of cancer cells. The culture plates were thoroughly washed with PBS, 1 mL of 5 mM EDTA (ethylenediaminetetraacetic acid, nacalai tesque 14347-21) was added to suspend the cells, and the cells were recovered. In the same manner as in Test 8, 1×10^4 cells of each cell line and 5×10^4 CD4-positive T-cells were co-cultured in 96-well flat bottom culture plates using 200 μL of the culture medium for human cells. […] After 24 hours 100 μL of the culture supernatants were collected from each well, and the IFN-γ concentrations were determined using the ELISA kit.

[3] = test system: lung cancer cell line Lu65; assay: Tumor growth in nude mice bearing Lu65; assay type: in vivo, mouse; conditions: BALB/c nude mice, 5-AZA 150 nmol/g i.p. Days 7, 12, 17, 22, Th cells i.v. Days 13, 20, 27
Method: BALB/c nude mice (10 to 14 weeks old, CHARLES RIVER LABORATORIES JAPAN) were intradermally injected with 3×10^6 cells of lung cancer cell line Lu65 using Myjector, and on Days 7, 12, 17, and 22, 200 μL of PBS containing 5-AZA (150 nmol/g of mouse body weight) was intraperitoneally administered using Myjector. To the control mice, 200 μL of PBS was intraperitoneally administered. On Days 13, 20, and 27, 200 μL of SYCP3-specific human Th cells (3 to 5×10^6 cells) were administered by tail vein administration. To the control mice, 200 μL of PBS was administered by tail vein administration. The tumor surface areas were measured over time.

[4] = test system: SYCP3 gene expression in HT-29 or WiDr tumor tissues; assay: SYCP3 gene expression in tumor tissues of nude mice given 5-AZA; assay type: in vivo, mouse; conditions: 5-AZA 1.6 μg/g i.p. Days 5, 10, 15, 20; tumors Day 25; vs PBS alone
Method: To the control mice, 200 μL of PBS was intraperitoneally administered.

[5] = test system: SYCP3 gene expression in EBC1, Lu65, HT-29, SAS; assay: SYCP3 gene expression by real-time PCR in 5-AZA-treated cancer cell lines; assay type: cell-based, human; conditions: 5-AZA 10 μM, 3 days; all tested cell lines (EBC1, Lu65, HT-29, SAS)
Method: Cells of cancer cell lines (lung cancer cell line EBC1, lung cancer cell line Lu65, colon cancer cell line HT-29, and oral squamous cell carcinoma cell line SAS) were cultured in the complete medium (RPMI 1640 medium (nacalai tesque 30264-56) with 100 U/mL penicillin (Meiji Seika) and […] streptomycin (Meiji Seika), added with 10% fetal bovine serum (biosera FB-1365/500) which had been […] at 56° C. for 30 minutes) containing 5-AZA (10 μM) at the density of 2×10^5 cells/well in 6-well plates (Falcon 353046) in an incubator (SANYO) set at 37° C., 5% CO2, and 95% humidity for 3 days. The same incubator was used for all cell cultures in the following tests. The cells were washed with 2 mL of a phosphate-buffered saline (PBS, KANTO CHEMICAL CO., INC. 73111). The RNAs were extracted with RNeasy Mini Kit (Qiagen 74106), and the cDNAs were synthesized by using PrimeScript 1st strand cDNA Synthesis Kit (Takara Bio 6110A), and the gene expression levels of GAPDH (Applied Biosystems Hs02786624_g1) and SYCP3 (Applied Biosystems Hs00538146_m1) were analyzed by real-time PCR using LightCycler480 (Roche). Each step was carried out in accordance with the description of the package inserts attached to each reagent.

[6] = test system: lung cancer cell line A549; assay: DNA microarray gene expression after 5-AZA treatment; assay type: cell-based, human
Method: Cells of lung cancer cell line A549 were treated with 5-AZA (10 μM) for 3 days and the RNAs were extracted. Gene expression levels were measured using DNA microarrays. The criteria for identifying the candidate genes were that the expression level was close to 0 in the non-treated cells and increased by 30 times or more in the 5-AZA-treated cells. Some candidate genes were found, including SYCP3 (untreated: 3.0, 5-AZA treated: 340.9, fold-change: […]), SPESP1 (untreated: 1.7, 5-AZA treated: 65.3, fold-change: […]), and DAZL1 (untreated: 2.8, 5-AZA treated: 341.3, fold-change: 123.6).

[7] = test system: SPESP1 gene expression in EBC1 or Lu65 tumor tissues; assay: SPESP1 gene expression in tumor tissues of nude mice given 5-AZA; assay type: in vivo, mouse; conditions: 5-AZA i.p.; tumors Day 25; vs PBS alone
Method: Similarly, nude mice were intradermally injected with cells of lung cancer cell line EBC1 (5×10^5 cells) or Lu65 (5×10^5 cells), and 5-AZA or PBS (control) was intraperitoneally administered. The RNAs were extracted from the tumor tissues collected on Day 25, and the gene expression levels of SPESP1 and GAPDH were analyzed by real-time PCR.

[8] = test system: SPESP1 gene expression in SW839, 5637, LC2/Ad, EBC1, HT-29, Lu65, SAS; assay: SPESP1 gene expression by real-time PCR in 5-AZA-treated cancer cell lines; assay type: cell-based, human; conditions: all tested cell lines
Method: Cells of cancer cell lines (lung cancer cell line EBC1, lung cancer cell line Lu65, colon cancer cell line HT-29, and oral squamous cell carcinoma cell line SAS) were cultured in the complete medium (RPMI 1640 medium (nacalai tesque 30264-56) with 100 U/mL penicillin (Meiji Seika) and 100 μg/L streptomycin (Meiji Seika), added with 10% fetal bovine serum (biosera FB-1365/500) which had been immobilized at 56° C. for 30 minutes) containing 5-AZA (10 μM) at the density of 2×10^5 cells/well in 6-well plates (Falcon 353046) in an incubator (SANYO) set at 37° C., 5% CO2, and 95% humidity for 3 days. […] The RNAs were extracted with RNeasy Mini Kit (Qiagen 74106), and the cDNAs were synthesized by using PrimeScript 1st strand cDNA Synthesis Kit (Takara Bio 6110A), and the gene expression levels of GAPDH (Applied Biosystems Hs02786624_g1) and SYCP3 (Applied Biosystems Hs00538146_m1) were analyzed by real-time PCR using LightCycler480 (Roche). […]
Similarly, cells of renal cancer cell line SW839, bladder cancer cell line 5637, lung adenocarcinoma cell line LC2/Ad, lung cancer cell line EBC1, colon cancer cell line HT-29, lung cancer cell line Lu65, and oral squamous cell carcinoma cell line SAS were cultured in the presence of 5-AZA, and the gene expression levels of GAPDH and SPESP1 (Applied Biosystems Hs00377364_m1) were analyzed.

[9] = test system: SYCP3 protein in EBC1 and Lu65; assay: SYCP3 protein by Western blotting; assay type: cell-based, human; conditions: EBC1 and Lu65 treated with 5-AZA
Method: The amount of SYCP3 protein in EBC1 and Lu65 treated with 5-AZA was analyzed by Western blotting. An anti-SYCP3 antibody (Mouse anti-SCP3, BD Bioscience 611230) diluted at 1:200 was used as the primary antibody. Upregulation of SYCP3 by the 5-AZA treatment was also observed at the protein level.

[10] = test system: DAZL1 protein in E0771 and C1498; assay: DAZL1 protein by Western blotting in mouse cancer cell lines; assay type: cell-based; conditions: 5-AZA 10 μM
Method: Cells of mouse cancer cell lines (E0771:C57BL/6 mouse breast cancer cell line and C1498:C57BL/6 mouse acute myeloid leukemia cell line) were treated with 5-AZA (10 μM), and the amount of DAZL1 protein was analyzed by Western blotting.

[11] = A549, 5-AZA 10 μM, 3 days, DNA microarray
[12] = A549, 5-AZA treated vs untreated

Nc1ncn([C@H]2C[C@H](O)[C@@H](CO)O2)c(=O)n1 [5-AZA, 5-aza-2′-deoxycytidine]
DAZL1 gene expression level [1]: upregulated | IFN-γ production of SYCP3-A-specific CD4-positive T-cells toward cancer cells [2]: increased the IFN-γ production | tumor growth (tumor surface area) [3]: No effect | SYCP3 gene expression in tumor tissues [4]: upregulated | SYCP3 gene expression level [5]: upregulated | DAZL1 gene expression level, 5-AZA treated [6, 11]: 341.3 | SPESP1 gene expression level, 5-AZA treated [6, 11]: 65.3 | SYCP3 gene expression level, 5-AZA treated [6, 11]: 340.9 | DAZL1 fold-change [6, 12]: 123.6 | SPESP1 fold-change [6, 12]: 38.8 | SYCP3 fold-change [6, 12]: 112.3 | SPESP1 gene expression in tumor tissues [7]: upregulated | SPESP1 gene expression level [8]: upregulated | amount of SYCP3 protein [9]: Upregulation | amount of DAZL1 protein [10]: upregulated
